Data published in US8815935B2, “Inhibitors of protein prenyltransferases” (The Regents of the University of California, priority 2008, dated 2014).
Values joined by “and” are separate entries in the source; they are usually repeats but may differ in a detail not shown here. Equal values may be shown once.

How the values were obtained:
K562 cells = experiment: Cell cycle profile by flow cytometry, K562; format: cell-based, human; conditions: 48 hours, FIG. 24A
Procedure: K562 cells were treated with indicated concentrations (mM) of P3-E5 (ranging from […]) or GGTI-298 (ranging from […]) for 48 hours. Cell cycle profiles were monitored by flow cytometry. Percentages of cells in each phase of the cell cycle are indicated by different colors. Red: G0/G1 phase. Black: S phase. Gray: G2/M phase.

[1] = system: geranylgeranylated Rheb (Rheb-CSVL) in HEK 293 cells; experiment: Rheb-CSVL mobility shift in HEK 293 cells; format: cell-based, human; conditions: 48 hours
Description: Finally, we investigated in vivo effects of compounds 22 (also known as UC-22) and 23 (also known as UC-23). Human embryonic kidney (HEK) 293 cells were transfected with the Rheb-CSVL construct that expresses the geranylgeranylated form of the Rheb protein. Inhibition of the geranylgeranylation of this protein can be detected from a shift in its mobility on SDS polyacrylamide gel; the unprocessed form appears as a slowly migrating band.
Human embryonic kidney (HEK) 293 cells expressing Myc-HA tagged-Rheb-CVSL (upper) or Myc-HA tagged-Rheb-WT (lower) were treated with P3-E5 for 48 hours and then lysed. The cell lysates were run on a SDS polyacrylamide gel and immunoblotted using anti-Myc or anti-Actin antibody. The descriptors P and U indicate processed and unprocessed Rheb, respectively.
Human embryonic kidney (HEK) 293 cells expressing Myc-HA tagged-Rheb-CVSL (upper) or Myc-HA tagged-Rheb-WT (lower) were treated with mP5-H6a (also referred to as mP5-H6), or GGTI-298 for 48 hours and then lysed. Lysates were run on a SDS polyacrylamide gel and immunoblotted with anti-Myc or anti-Actin antibody.

Capan-2 = Capan-2 cell growth inhibition; format: cell-based, human; conditions: Homo sapiens, Capan-2, 72 h; 3 days, CCK-8, vs DMSO; read-out: IC50, Capan-2 (Pancreas)
Procedure: (§1) In FIG. 9-24 in vitro IC50 values for the GGTase I activity are reported. In Tables 7-15 in cell GI50 values for the growth inhibition of a variety of cancer cell lines (e.g., Jurkat, K562, MDA-MB-231, BT474, MCF7, MiaPaCa2, Aspc-1, Panc-1, Capan-2, CFpac-1, and MCF10a) are reported.
(§2) Cell viability was determined by Cell Counting Kit-8 (CCK-8, Dojindo, Kumamoto, Japan) as described previously (31). Cell viability was calculated relative to the DMSO control. Cell cycle profile was analyzed by flow cytometry as described previously (32).

CFpac-1 = CFpac-1 cell growth inhibition; format: cell-based, human; conditions: Homo sapiens, CFPAC-1, 72 h; 3 days, CCK-8, vs DMSO; read-out: IC50, CFpac-1 (Pancreas)
Procedure: as §1, §2

MCF-7 cells = experiment: Cell cycle profile by flow cytometry, MCF-7; format: cell-based, human; conditions: 48 hours, FIG. 37B
Procedure: MCF-7 cells were treated with P61-A6, P61-B6 or DMSO for 72 hours. Cell viability relative to the DMSO control (100% value) is plotted. (B) MCF-7 cells were treated with indicated concentrations (μM) of P61-A6, P61-B6 or DMSO for 48 hours. Cell cycle profiles were monitored by flow cytometry. Percentages of cells in each phase of the cell cycle are indicated by different shades. (C) NIH3T3 cells were transfected with p21^CIP1/WAF1-luciferase or empty vector. Cells were treated with P61-A6 or P61-B6 compound at indicated concentrations or with DMSO for 48 hours and luciferase assay was performed. Data represent the mean+/−S.D. of two measurements from two independent experiments. *, P<0.05; **, P<0.005 compared with the value for DMSO.
as §2

[2] = system: H-Ras farnesylation in NIH3T3 cells; experiment: H-Ras mobility shift immunoblot in NIH3T3 cells; format: cell-based; conditions: 48 hours
Procedure: K562 cells were treated with modified compounds for 72 hours and then cell number was counted. IC50 values of cell viability relative to the DMSO were measured. […] Data represent the mean+/−S.D. of two measurements from two independent experiments. *, P<0.05 compared with the value for DMSO. […] Whole cell lysates from cells treated with DMSO, P5-H6, P61-A6, GGTI (GGTI-298), FTI (BMS-225975) or RabGGTI (P49-F6) for 48 hours were prepared and processed for immunoblot analysis using antibody against unprenylated form of Rap1 (C: upper panel), Total-Rap1 (C: middle panel), H-Ras (D: upper panel), Rab5b (E: upper panel) or actin (C, D, and E: lower panel). The immunoblots shown represent two independent experiments for each treatment.
This was examined by using a farnesylated protein H-Ras.

PANC-1 xenograft tumor = PANC-1 xenograft tumor growth in SCID mice; format: in vivo; conditions: 1.16 mg/kg i.p., six times per week
Procedure: Xenograft tumor experiments have shown that GGTI's can inhibit PANC-1 tumor growth in mice. Seven SCID mice (six weeks old) received a subcutaneous implantation of 5 million PANC-1 cells. The mice were supplied with food and water for 14 days before treatment was started. The treatment group received 160 uM GGTI (p61A6) in 0.25 ml 0.9% NaCl while the control group received 0.25 ml 0.9% NaCl. Each dosage was injected 3 times per week. These dosage were designed to administer p61A6 at approximately 1.16 mg/kg of body weight. Also, since the mouse has about 2 ml blood, the final concentration of p61A6 in vivo was approximately 20 uM. The final DMSO concentration in the control group was approximately 0.8%.
Additional xenograft tumor experiments have shown that GGTI's can inhibit PANC-1 tumor growth in mice and reduce the size of the tumor. Six SCID mice (six weeks old) received a subcutaneous implantation of 3 million PANC-1 cells. The mice were supplied with food and water for 14 days before treatment began. […] Every two weeks each mouse's body weight and tumor volume was measured.

[3] = Pharmacokinetics (serum levels) after IP dosing; format: in vivo, mice; conditions: 1.16 mg/kg
Description: This may be due to slow metabolism of the compound. […] Thus, in some embodiments, the compositions of the invention can be administered is a dosage regimen that is highly convenient, e.g., once weekly instead of daily. The compositions of the present invention can be administered every 1, 2, 3, 4, 5, 6, or 7 days, or may be administered otherwise.

| Compound | cell cycle effect in K562 cells (K562 cells) | inhibition of geranylgeranylation of Rheb-CSVL (slowly migrating unprocessed band) [1] | IC50 (Capan-2) [µM] | IC50 (CFpac-1) [µM] | cell cycle effect in MCF-7 (MCF-7 cells) | mobility shift of H-Ras (protein farnesylation) [2] | PANC-1 xenograft tumor growth (PANC-1 xenograft tumor) | Clearance ([3]; IP) [mL/h] | Cmax ([3]; mouse, serum, ip) | half-life ([3]; mouse, serum, ip) [h] | AUC(0-t) ([3]; mouse, serum, ip, read-out: AUC0-4 h) [ng·h/mL] |
| --- | --- | --- | --- | --- | --- | --- | --- | --- | --- | --- | --- |
| Cc1ccccc1S(=O)(=O)N1[C@@H](c2cccc(Cl)c2)C(C(=O)O)=CC[C@H]1c1ccc(Cl)cc1 [P3-E5] | induces G1 arrest | inhibits geranylgeranylation in cells |  |  |  |  |  |  |  |  |  |
| Cc1ccccc1S(=O)(=O)N1C(c2ccc(Cl)cc2)C(C(=O)NC(Cc2ccccc2)C(N)=O)=CC1C(C)(C)C (centres unmarked) [P61-A6] |  |  | 11.5 | 6.3 | dose-dependent enrichment of G1 phase cells | no such mobility shift | almost complete inhibition | 1.04 | 13000 ng/mL and 22.4 µM | 16.9 | 22200 |
